Experimental data reported in ChEMBL document CHEMBL4130462, “Natural isoflavone biochanin A as a template for the design of new and potent 3-phenylquinolone efflux inhibitors against Mycobacterium avium” (Eur J Med Chem, 2017).
Values after ≈ are worked out from the molar mass of the structure shown.

Tests used:
Mycobacterium avium [1] = experiment: Antimycobacterial activity against Mycobacterium avium ATCC 25291 assessed as reduction in bacterial viability incubated for 3 days by MTT assay; assay type: organism-based; settings: mycobacterium avium subsp. avium atcc 25291, 72 h
Mycobacterium avium [2] = experiment: Antimycobacterial activity against Mycobacterium avium isolate MAV1 assessed as reduction in bacterial viability incubated for 3 days by MTT assay; assay type: organism-based; settings: in vitro, 72 h
Mycobacterium avium [3] = experiment: Antimycobacterial activity against Mycobacterium avium isolate MAV2 assessed as reduction in bacterial viability incubated for 3 days by MTT assay; assay type: organism-based; settings: 72 h
Mycobacterium avium [4] = experiment: Antimycobacterial activity against Mycobacterium avium isolate MAV3 assessed as reduction in bacterial viability incubated for 3 days by MTT assay; assay type: organism-based; settings: 72 h
Mycobacterium avium [5] = experiment: Antimycobacterial activity against Mycobacterium avium isolate MAV4 assessed as reduction in bacterial viability incubated for 3 days by MTT assay; assay type: organism-based; settings: 72 h
Mycobacterium avium [6] = settings: 72 h
Description: Antimycobacterial activity against Mycobacterium avium 104 assessed as reduction in bacterial viability incubated for 3 days by MTT assay

Mycobacterium avium [7] = settings: in vivo, 72 h
Description: Antimycobacterial activity against Mycobacterium avium 104 mc'2 3 assessed as reduction in bacterial viability incubated for 3 days by MTT assay

Mycobacterium avium [8] = settings: in vivo, 72 h; remark: listed apart in the source
Description: Antimycobacterial activity against Mycobacterium avium 104 mc'2 4 assessed as reduction in bacterial viability incubated for 3 days by MTT assay

[9] = system: Mycolicibacterium smegmatis; experiment: Antimycobacterial activity against Mycobacterium smegmatis str. MC2 155 assessed as reduction in bacterial viability incubated for 3 days by MTT assay; assay type: organism-based; settings: 72 h
Mycobacterium avium [10] = experiment: Inhibition of multidrug resistance efflux pump in Mycobacterium avium 104 assessed as increase in EtBr accumulation by measuring relative final fluorescence at 1/4 times MIC incubated for 60 mins by real-time fluorometry relative to control
Mycobacterium avium [11] = experiment: Inhibition of multidrug resistance efflux pump in Mycobacterium avium 104 mc'2 3 assessed as increase in EtBr accumulation by measuring relative final fluorescence at 1/4 times MIC incubated for 60 mins by real-time fluorometry relative to control
Mycobacterium avium [12] = experiment: Inhibition of multidrug resistance efflux pump in Mycobacterium avium 104 mc'2 4 assessed as increase in EtBr accumulation by measuring relative final fluorescence at 1/4 times MIC incubated for 60 mins by real-time fluorometry relative to control
[13] = system: Mycolicibacterium smegmatis MC2 155; experiment: Inhibition of multidrug resistance efflux pump in Mycobacterium smegmatis str. MC2 155 assessed as increase in EtBr accumulation by measuring relative final fluorescence at <= 1/2 times MIC incubated for 60 mins by real-time fluorometry relative to control
[14] = Cytotoxicity in human monocyte-derived macrophages assessed as reduction in cell viability incubated for 3 days by alamar blue dye based assay; design: species or system Macrophage cell line; settings: for CC50 at 72 h: human monocyte-derived macrophages; for MTC: macrophage cell line, 72 h

| SMILES | MIC (Mycobacterium avium [1]) | MIC (Mycobacterium avium [2]) | MIC (Mycobacterium avium [3]) | MIC (Mycobacterium avium [4]) | MIC (Mycobacterium avium [5]) | MIC (Mycobacterium avium [6]) | MIC (Mycobacterium avium [7]) | MIC (Mycobacterium avium [8]) | MIC [9] | Ratio (Mycobacterium avium [10]) | Ratio (Mycobacterium avium [11]) | Ratio (Mycobacterium avium [12]) | Ratio [13] | CC50 at 72 h [14] | MTC [14] |
| --- | --- | --- | --- | --- | --- | --- | --- | --- | --- | --- | --- | --- | --- | --- | --- |
| CC[C@H]1OC(=O)[C@H](C)[C@@H](O[C@H]2C[C@@](C)(OC)[C@@H](O)[C@H](C)O2)[C@H](C)[C@@H](O[C@@H]2O[C@H](C)C[C@H](N(C)C)[C@H]2O)[C@](C)(O)C[C@@H](C)CN(C)[C@H](C)[C@@H](O)[C@]1(C)O [AZITHROMYCIN] | 64 mg/L (≈ 85.4 µM) | 256 mg/L (≈ 342 µM) | > 512 mg/L | 256 mg/L (≈ 342 µM) | 256 mg/L (≈ 342 µM) | > 512 mg/L | > 512 mg/L | > 512 mg/L | – | – | – | – | – | – | – |
| CCCOc1ccc(-c2cn(CCN3CCN(Cc4ccccc4)CC3)c3ccccc3c2=O)cc1 | – | – | – | – | – | 256 mg/L (≈ 532 µM) | 256 mg/L (≈ 532 µM) | 256 mg/L (≈ 532 µM) | 64 mg/L (≈ 133 µM) | 3.19 | 2.93 | 1.96 | – | – | – |
| CC1COc2c(N3CCN(C)CC3)c(F)cc3c(=O)c(C(=O)O)cn1c23 (stereo not given) [OFLOXACIN] | 64 mg/L (≈ 177 µM) | 4 mg/L (≈ 11.1 µM) | 4 mg/L (≈ 11.1 µM) | 16 mg/L (≈ 44.3 µM) | 16 mg/L (≈ 44.3 µM) | 16 mg/L (≈ 44.3 µM) | 16 mg/L (≈ 44.3 µM) | 16 mg/L (≈ 44.3 µM) | – | – | – | – | – | – | – |
| COc1ccc(-c2coc3cc(O)cc(O)c3c2=O)cc1 [BIOCHANIN] | – | – | – | – | – | > 64 mg/L | > 64 mg/L | > 64 mg/L | > 64 mg/L | – | – | – | 0.63 | 50.4 µM | 20 µM |
| CC[C@H]1OC(=O)[C@H](C)[C@@H](O[C@H]2C[C@@](C)(OC)[C@@H](O)[C@H](C)O2)[C@H](C)[C@@H](O[C@@H]2O[C@H](C)C[C@H](N(C)C)[C@H]2O)[C@](C)(OC)C[C@@H](C)C(=O)[C@H](C)[C@@H](O)[C@]1(C)O [CLARITHROMYCIN] | 8 mg/L (≈ 10.7 µM) | 4 mg/L (≈ 5.35 µM) | > 1024 mg/L | 16 mg/L (≈ 21.4 µM) | 8 mg/L (≈ 10.7 µM) | 8 mg/L (≈ 10.7 µM) | > 512 mg/L | > 512 mg/L | – | – | – | – | – | – | – |
| CCCOc1ccc(-c2cn(CCN3CCNCC3)c3ccccc3c2=O)cc1 | – | – | – | – | – | > 256 mg/L | > 256 mg/L | > 256 mg/L | > 256 mg/L | – | – | – | 1.42 | – | – |
| CC[n+]1c(-c2ccccc2)c2cc(N)ccc2c2ccc(N)cc21.[Br-] [HOMIDIUM BROMIDE] | 50 mg/L | 25 mg/L | 12.5 mg/L | 12.5 mg/L | 50 mg/L | 25 mg/L | 25 mg/L | 25 mg/L | – | – | – | – | – | – | – |
| CCCOc1ccc(-c2cn(C)c3ccccc3c2=O)cc1 | – | – | – | – | – | – | – | – | 256 mg/L (≈ 873 µM) | – | – | – | – | – | – |
| O=C(O)c1cn(C2CC2)c2cc(N3CCNCC3)c(F)cc2c1=O [CIPROFLOXACIN] | 32 mg/L (≈ 96.6 µM) | 2 mg/L (≈ 6.04 µM) | 8 mg/L (≈ 24.1 µM) | 32 mg/L (≈ 96.6 µM) | 32 mg/L (≈ 96.6 µM) | 16 mg/L (≈ 48.3 µM) | 16 mg/L (≈ 48.3 µM) | 16 mg/L (≈ 48.3 µM) | – | – | – | – | – | – | – |
| CC[C@H]1OC(=O)[C@H](C)[C@@H](O[C@H]2C[C@@](C)(OC)[C@@H](O)[C@H](C)O2)[C@H](C)[C@@H](O[C@@H]2O[C@H](C)C[C@H](N(C)C)[C@H]2O)[C@](C)(O)C[C@@H](C)C(=O)[C@H](C)[C@@H](O)[C@]1(C)O [ERYTHROMYCIN] | – | – | > 512 mg/L | 512 mg/L (≈ 698 µM) | 512 mg/L (≈ 698 µM) | – | > 512 mg/L | > 512 mg/L | – | – | – | – | – | – | – |
| CCCOc1ccc(-c2c[nH]c3ccccc3c2=O)cc1 | – | – | – | – | – | Nd(Insoluble) | Nd(Insoluble) | Nd(Insoluble) | Nd(Insoluble) | – | – | – | – | – | – |
| CCCOc1ccc(-c2cn(CCCN(C)C)c3ccccc3c2=O)cc1 | – | – | – | – | – | > 256 mg/L | > 256 mg/L | > 256 mg/L | > 256 mg/L | – | – | – | 1.38 | – | – |
| COc1ccc(CCN(C)CCCC(C#N)(c2ccc(OC)c(OC)c2)C(C)C)cc1OC (stereo not given) | 800 mg/L (≈ 1760 µM) | 400 mg/L (≈ 880 µM) | 400 mg/L (≈ 880 µM) | 800 mg/L (≈ 1760 µM) | 800 mg/L (≈ 1760 µM) | 800 mg/L (≈ 1760 µM) | 800 mg/L (≈ 1760 µM) | 800 mg/L (≈ 1760 µM) | 800 mg/L (≈ 1760 µM) | – | – | – | – | 117 µM | 10 µM |
